Data published in PMC8026324, “In Vitro Antiplasmodial, Heme Polymerization, and Cytotoxicity of Hydroxyxanthone Derivatives” (Journal of Tropical Medicine, 2021).
≈ marks a conversion by molar mass, not a printed value.

Tests used:
MCF-7 = system: MCF-7; parameters: method as in earlier work; conditions: cited from earlier work
[1] = system: formation of β-hematin (heme polymerization); experiment: In vitro heme polymerization inhibitory activity (HPIA) assay; assay type: biochemical
Protocol: The heme polymerization inhibitory activity (HPIA) was conducted according to Basilico et al.'s modified method. The 100 μL of 1 mM hematin in 0.2 M NaOH was added into a microtube. […] Distilled water was used as a negative control. The 50 μL solution of glacial acetic acid (pH 2.6) was added into the microtube to initiate the polymerization reaction and incubated at a temperature of 37°C for 24 hours. Microtubes were centrifuged at 8000 rpm for 10 minutes and the supernatant was discarded and then washed three times using the 200 μL dimethyl sulfoxide (DMSO).Then, the deposition of the hematin crystal was dissolved with 200 μL of 0.1 M NaOH and 100 μL of solution was added into the 96-well microplate.
Absorbance was read using ELISA reader at λ 405 nm. A standard curve was made to illustrate the relationship between the concentration of hematin and its absorbance. The various concentrations of hematin (250; 125; 62.5; 31.25; 15.6; 7.8; and […]) were used to make the standard curve. The heme polymerization inhibition was expressed as IC50, which is the concentration of testing compounds that can inhibit 50% of the formation of β-hematin. The IC50 value was calculated by probit analysis using SPSS software (IBM Corp., Chicago).

Vero cells = experiment: In vitro cytotoxicity test, MTT assay on Vero cell line; assay type: cell-based; conditions: for IC50: MTT assay
Protocol: The in vitro cytotoxicity test was conducted using the 3-(4,5-dimethylthiazol-2-yl)2,5-diphenyltetrazolium bromide (MTT) assay method on Vero cell line culture using the Anderson et al.'s modified method.
The cell was removed from the cryo medium. Then, the cell was thawed at 37°C. The liquid cell was subsequently transferred to the tube and a culture medium was added to a volume of 10 mL. Then, the suspension was centrifuged for 15 minutes so that it would form cell pellets. The supernatant was removed and 1 mL of culture medium was added to the cell pellets. Finally, the suspension was transferred to the Petri dish and incubated in the incubator with 5% of CO2 at 37°C.
The medium of Vero cell culture was removed, and then the cell was washed using a PBS solution with a volume of PBS ± 1/2 of the initial medium volume. This step was done twice and 1 mL of trypsin 0.25% was added. Subsequently, the cell was incubated in the CO2 incubator at 37°C for 3 minutes. Then, the cell was resuspended using 2 mL of culture medium and PBS solution was added up to 10 mL. The suspension was centrifuged for 15 minutes so that it formed pellets. Pellets were added with 1 mL of culture medium and resuspended. Take 10 μL of the cell suspension and density of cells was calculated.
Then, the cell was added with culture medium to 10 mL. A total of 100 μL of such suspensions was transferred into each well of the 96-well microplate, but three of the wells were emptied as medium controls. Subsequently, the microplate was incubated in a 5% CO2 incubator at 37°C.
Each hydroxyxanthone derivative compound was dissolved in DMSO, and a variety of concentrations were prepared in the medium. Each concentration of the testing compound was added into the 96-well microplate triplicately. Cell control and medium control were not given a testing compound solution. The medium control remained blank, while the cell control contained culture medium only. […] Then, the cell was incubated in a 5% CO2 incubator at 37°C for 24 hours.
After the cell was incubated for 24 hours, the medium was discarded and washed with PBS. Then, each well was added with 100 μL of 5 mg/mL of MTT solution. The 96-well microplate was incubated again in the incubator of CO2 at 37°C for 4 hours. Then, 100 μL of 10% of SDS in 0.01 MHCl was added. The cells were placed in a dark room at room temperature for 24 hours.
The absorbance was measured using the enzyme-linked immunosorbent assay (ELISA) reader at 595 nm wavelength. The cytotoxicity test on the Vero cells was done by calculating the percentage of Vero cell inhibition of the absorption value of the test compound, cell control, and medium control. The cytotoxic effect was expressed as IC50. The IC50 value was obtained from the probit analysis by using SPSS software (IBM Corp., Chicago). The degree of selectivity was expressed as a selectivity index. The selectivity index was obtained from the ratio between the IC50 cytotoxic effect on Vero cells and IC50 antiplasmodial activity on Plasmodium. A compound is said to be safe if the value of the selectivity index is >10 [20].

Hela = system: Hela; parameters: method as in earlier work; conditions: cited from earlier work

Structure (SMILES): O=c1c2c(O)cccc2oc2cc(O)cc(O)c12 [HX1, 1,6,8-trihydroxyxanthone]
- cytotoxicity on MCF-7 (in words) (MCF-7): weak
- IC50 on MCF-7 cell line (MCF-7; in vitro cytotoxicity): 45 µg/mL (≈ 184 µM)
- IC50 ([1]; 24 hours, 37°C, glacial acetic acid pH 2.6): 2.85 mM
- Inhibition of β-hematin ([1]; compound 1.269 mM): 33.901%
- β-Hematin formed ([1]; compound 1.269 mM): 72.500 mM
- Inhibition of β-hematin ([1]; compound 2.580 mM): 49.149%
- β-Hematin formed ([1]; compound 2.580 mM): 55.776 mM
- Inhibition of β-hematin ([1]; compound 5.119 mM): 50.359%
- β-Hematin formed ([1]; compound 5.119 mM): 54.448 mM
- Inhibition of β-hematin ([1]; compound 10.238 mM): 86.893%
- β-Hematin formed ([1]; compound 10.238 mM): 14.376 mM
- Inhibition of β-hematin ([1]; compound 20.475 mM): 91.171%
- β-Hematin formed ([1]; compound 20.475 mM): 9.684 mM
- IC50 (Vero cells; 24 hours incubation): 3.39 ± 0.435 mM
- IC50 (Vero cells; Chlorocebus sabaeus, Vero, 24 h, 24 hours incubation): 3.28 mM
- inhibition at 255.94 µM (Vero cells; Chlorocebus sabaeus, Vero, 24 h, 255.94 μM, read-out: Vero cell growth inhibition after 24 hours incubation): -50.3 ± 17.2%
- inhibition at 511.88 µM (Vero cells; Chlorocebus sabaeus, Vero, 24 h, 511.88 μM, read-out: Vero cell growth inhibition after 24 hours incubation): -4.13 ± 8.21%
- inhibition at 1023.75 µM (Vero cells; Chlorocebus sabaeus, Vero, 24 h, 1023.75 μM, read-out: Vero cell growth inhibition after 24 hours incubation): 15.9 ± 8.24%
- inhibition at 2047.5 µM (Vero cells; Chlorocebus sabaeus, Vero, 24 h, 2047.50 μM, read-out: Vero cell growth inhibition after 24 hours incubation): 28 ± 5.69%
- inhibition at 4095 µM (Vero cells; Chlorocebus sabaeus, Vero, 24 h, 4095.00 μM, read-out: Vero cell growth inhibition after 24 hours incubation): 45.9 ± 5.51%
- inhibition at 8190.01 µM (Vero cells; Chlorocebus sabaeus, Vero, 24 h, 8190.01 μM, read-out: Vero cell growth inhibition after 24 hours incubation): 89.4 ± 1.9%
- IC50 (Vero cells; Chlorocebus sabaeus, Vero): 802 µg/mL
- Selectivity index (over strains 3D-7 and FCR-3) (Vero cells; cytotoxicity/antiplasmodium ratio on P. falciparum 3D-7 and FCR-3): more than 10
- Selectivity index 3D-7 (Vero cells; ratio IC50 on Vero cell/IC50 on P. falciparum 3D-7): 556.54
- Selectivity index FCR-3 (Vero cells; ratio IC50 on Vero cell/IC50 on P. falciparum FCR-3): 502.20
- cytotoxicity on Hela (in words) (Hela): weak
- IC50 on Hela cell line (Hela; in vitro cytotoxicity): 67.7 µg/mL (≈ 277 µM)
